The series deals with human BCL11A erythroid enhancer. Nature of the series: Tiled pooled CRISPR-Cas9 screen for in situ functional mapping of the human BCL11A erythroid enhancer (HbF-high/HbF-low sort, sgRNA deep sequencing). The format is cell-based. The following applies: for Enrichment Score: HbF enrichment, human library NGG and NGG RC sgRNAs filtered for enrichment score >0.259; for Dropout Score: human library sgRNAs that produced HbF enrichment over 0.259. Summed up:
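HUDEP-2 cells stably expressing Cas9 transduced at low multiplicity with tiled sgRNA library covering +55/+58/+62 DHS, selected with blasticidin/puromycin, expanded one week then differentiated one week. Top and bottom 10% HbF-stained cells FACS-sorted; sgRNA representation determined by deep sequencing of genomic DNA.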

On to “BCL_00108_H_D55 (guide TCTGAGGAGCTAGAGACTTGNGG; listed as DNA, chemistry not given here)”, for which the “Enrichment Score” value is 0.3065 and the “Dropout Score” value is recorded as −0.6499.
With “BCL_00031_H_D55 (guide CTGGCAGACCCTCAAGAGCANGG; listed as DNA, chemistry not given here)”, the “Enrichment Score” value turned out to be 0.3216 and the “Dropout Score” value is −1.354.
In the case of “BCL_01622_H_D58 (guide GAAGGGTTTGGCCTCTGATTNGGRC; listed as DNA, chemistry not given here)”, the “Enrichment Score” value is 1.378 and the “Dropout Score” value is reported as −0.6695.
“BCL_01625_H_D58 (guide GTTTGGCCTCTGATTAGGGTNGGRC; listed as DNA, chemistry not given here)”: the “Enrichment Score” value was determined as 0.3718 and the “Dropout Score” value is −0.9451.
The like results for “BCL_01640_H_D58 (guide TCGGTGGCCGTTTGCCCAGGNGGRC; listed as DNA, chemistry not given here)” were, in that order, 0.3658 and −1.013.
The like results for “BCL_01800_H_D62 (guide GCCCCGGCCTCCCAAAGTGCNGGRC; listed as DNA, chemistry not given here)” were, in that order, 0.6113 and −7.65.
Turning to “BCL_00182_H_D58 (guide CTTCCGAAAGAGGCCCCCCTNGG; listed as DNA, chemistry not given here)”, the “Enrichment Score” value is given as 0.2942 and the “Dropout Score” value is on record as 0.02396.
The corresponding values for “BCL_01428_H_D55 (guide GAATGTCCCAGGCCAATTCTNGGRC; listed as DNA, chemistry not given here)” are 0.4299 and −0.5435.
With “BCL_02014_H_exon2 (guide TCTGTAAGAATGGCTTCAAGNGGRC; listed as DNA, chemistry not given here)”, the “Enrichment Score” value came out at 0.9901 and the “Dropout Score” value is recorded as −0.7711.
As for “BCL_01629_H_D58 (guide TCTGATTAGGGTGGGGGCGTNGGRC; listed as DNA, chemistry not given here)”, the “Enrichment Score” value was found to be 1.104 and the “Dropout Score” value was found to be 0.1807.
For “BCL_01990_H_exon2 (guide GATAAACAATCGTCATCCTCNGGRC; listed as DNA, chemistry not given here)”, the “Enrichment Score” value is recorded as 0.8422 and the “Dropout Score” value was −0.6128.
As for “BCL_00090_H_D55 (guide CCTGGTACCAGGAAGGCAATNGG; listed as DNA, chemistry not given here)”, the “Enrichment Score” value was determined as 0.4651 and the “Dropout Score” value is recorded as −0.5292.
The corresponding values for “BCL_00250_H_exon2 (guide GAACCAGACCACGGCCCGTTNGG; listed as DNA, chemistry not given here)” are 1.581 and −0.6847.
The like results for “BCL_00238_H_D62 (guide TGCCTGTAATCTCAGCTACTNGG; listed as DNA, chemistry not given here)” were, in that order, 0.6113 and −8.923.
Take “BCL_01828_H_D62 (guide CTCTTCTCCAGGGTGTGGGGNGGRC; listed as DNA, chemistry not given here)”: the “Enrichment Score” value is 0.3485 and the “Dropout Score” value is on record as −0.391.
With “BCL_00027_H_D55 (guide CCCATGGAGGTGGGGAGATGNGG; listed as DNA, chemistry not given here)”, the “Enrichment Score” value was found to be 0.2823 and the “Dropout Score” value is recorded as −0.4562.
The like results for “BCL_01618_H_D58 (guide TTGCTTTTATCACAGGCTCCNGGRC; listed as DNA, chemistry not given here)” were, in that order, 0.8561 and −0.8127.
The like results for “BCL_00239_H_D62 (guide GCCTGTAATCTCAGCTACTCNGG; listed as DNA, chemistry not given here)” were, in that order, 1.916 and −6.031.
The corresponding values for “BCL_00241_H_D62 (guide CTCAGCTACTCGGGAGGCTGNGG; listed as DNA, chemistry not given here)” are 0.6113 and −9.052.
Regarding “BCL_01994_H_exon2 (guide GATGCCAACCTCCACGGGATNGGRC; listed as DNA, chemistry not given here)”, the “Enrichment Score” value was determined as 1.11 and the “Dropout Score” value is listed as −0.9904.
For the substance “BCL_00073_H_D55 (guide AGCACACAAGATGCACACCCNGG; listed as DNA, chemistry not given here)”, the “Enrichment Score” value is listed as 0.4199 and the “Dropout Score” value is recorded as −0.8372.
The corresponding values for “BCL_00091_H_D55 (guide CCCACTTCCCTTCCTAGAATNGG; listed as DNA, chemistry not given here)” are 1.168 and −0.5042.
Take “BCL_01620_H_D58 (guide TTTATCACAGGCTCCAGGAANGGRC; listed as DNA, chemistry not given here)”: the “Enrichment Score” value stood at 1.38 and the “Dropout Score” value is listed as −0.9481.
The corresponding values for “BCL_00245_H_D62 (guide GGAGATCGCTTGAACCTGGGNGG; listed as DNA, chemistry not given here)” are 0.4762 and −5.067.
Consider “BCL_00258_H_exon2 (guide GCCAGATGAACTTCCCATTGNGG; listed as DNA, chemistry not given here)”, for which the “Enrichment Score” value turned out to be 1.593 and the “Dropout Score” value was −1.899.
The like results for “BCL_00154_H_D58 (guide AGGGAAAAGGGAGAGGAAAANGG; listed as DNA, chemistry not given here)” were, in that order, 0.4446 and −0.3992.
The like results for “BCL_00008_H_D55 (guide TGAAACCAAGCTTCCTCTGCNGG; listed as DNA, chemistry not given here)” were, in that order, 0.2741 and −0.2303.
The like results for “BCL_01999_H_exon2 (guide ATCTCGATTGGTGAAGGGGANGGRC; listed as DNA, chemistry not given here)” were, in that order, 0.6204 and −0.7601.
Take “BCL_01788_H_D62 (guide GAGATTTACTCTTGTTGCCCNGGRC; listed as DNA, chemistry not given here)”: the “Enrichment Score” value came to 1.29 and the “Dropout Score” value is −5.463.
The like results for “BCL_01794_H_D62 (guide CAGGCATGTATTACCATGCCNGGRC; listed as DNA, chemistry not given here)” were, in that order, 0.2801 and −1.011.
The like results for “BCL_00252_H_exon2 (guide GCCCGTTGGGAGCTCCAGAANGG; listed as DNA, chemistry not given here)” were, in that order, 0.5453 and 0.09212.
The corresponding values for “BCL_02006_H_exon2 (guide TCTGGCACTGCCCACAGGTGNGGRC; listed as DNA, chemistry not given here)” are 1.489 and −2.029.

Source of the values: patent US12497610B2, “Functional genomics using CRISPR-CAS systems for saturating mutagenesis of non-coding elements, compositions, methods, libraries and applications thereof” (THE BROAD INSTITUTE, INC., priority 2015, dated 2025).
